Test results as given in US20250382556A1, “MODULATION OF THE BRANCHED-CHAIN METABOLITE CONTENT OF FRUITS AND VEGETABLES” (BOARD OF TRUSTEES OF MICHIGAN STATE UNIVERSITY, priority 2024, published 2025).

Key:
[1] = system: ‘Red Delicious’ apple fruit; assay: Physiology of MCP-treated stored apple fruit (respiration, firmness); format: in vivo, Malus x domestica Borkh.; details: Red Delicious after five months storage in air at 0° C. and warming
Experimental: ‘Gala’, ‘Empire’, ‘Jonagold’, and ‘Red Delicious’ apple fruit (Malus x domestica Borkh.) were harvested from local orchards at commercial maturity and transported to the laboratory during the 2022 and 2023 seasons. As determined by previously described methods, the fruit were at the developmental onset of ripening with no subjectively discernible aroma. ‘Gala’ and ‘Empire’ fruits began treatment immediately after arrival in the laboratory. ‘Jonagold’ fruit were held in air at 0° C. for two days before transfer to controlled atmosphere (CA) storage (1.5 O2, 3% CO2, 0° C.) and then kept in CA for twelve days to suppress ethylene action before the initiation of inhibitor treatment. ‘Red Delicious’ fruit were treated with 50 nL·^−1 1-methylcyclopropene (MCP) for 24 h at 0° C. The MCP was evolved from a commercial MCP product (EASYFRESH®, Fine Americas) in sealed chambers two days after harvest as previously described. The fruit were then stored in air at 0° C. for five months and were warmed to 22° C. for 24 h before sulfonylurea treatment. This low-dosage MCP treatment had very mild effects on physiology. […] Based on the internal ethylene concentration (˜100 μL·L^−1) and the total ester production (elevated and trending upwards), the fruit were considered to be of an advanced stage of ripeness, but not senescent. […]

[2] = system: banana pulp; assay: Headspace volatile ester emissions of banana pulp sections treated with AHAS inhibitor; set-up: species or system Musa spp. AAA group, Cavendish subgroup, cv. Valery; key to 1-methylbutyl acetate emissions compared to control: —: Dash indicates no significant difference between treatments
Excerpt: Banana fruit at an early stage of ripening were infiltrated with AHAS inhibitors by two means. The first method was used for the effects of sulfonylureas on volatile and amino acid content, whereas the second was used to investigate the recovery of sulfonylurea-treated fruits after precursor application.
(§1) In the first method, mature green ‘Valery’ fruit were cut into ˜1 cm^2 sections, 2-mm thick, from transverse sections of fruit not treated with ethylene. Care was taken such that one edge of the square was from the edge of the pulp, thus representing an undisturbed or ‘live edge’ of cells that should be able to maintain unhindered gas exchange. Pulp sections were prepared in vials as above described for apples. Treatment solution: 0.5 mM halosulfuron-methyl (methyl 3-chloro-5-(4,6-dimethoxypyrimidin-2-ylcarbamoylsulfamoyl)-1-methylpyrazole-4-carboxylate, made from SANDEA®, Gowan Co. 75% w/w active ingredient; 0.1% Tween 20). Ripening was induced by injection of 1 μL ethylene into the vial's 20-mL headspace. The following day the vials were vented for 15 min before having the Mininert valve (Valco Instruments Co. Inc.) replaced on the vial but with a needle inserted to allow for gas diffusion. Daily for the following two days, 20 μL of freshly made inhibitor or water solution was added onto the pulp. The needles were again kept in the valves to maintain gas diffusion. The next day, and thus four days since initially preparing the vials, the needles were removed, and the vials were sealed and incubated for at least 1 hour at room temperature (22° C.) before headspace sampling.
Headspace volatiles from small tissue samples incubated in 22 mL vials were adsorbed for 30 s using a solid-phase micro extraction (SPME) fiber (65 μm PDMS-DVB; Supelco Analytical). The SPME fiber was then directly desorbed for 1 min in the injection port of a gas chromatograph (GC; HP-6890, Hewlett-Packard) coupled to a time-of-flight mass spectrometer (MS; Pegasus II, LECO). Whole fruits and banana slices were incubated for 20 min at room temperature (22° C.) in 1-L sealed Teflon jars before a 15-s, or 3-min adsorption and 1- or 2-min desorption. Adsorption times were adjusted to ensure instrument responses were in the linear range. All desorbed volatiles were cryofocused at the beginning of the column by immersing said region of the column in liquid nitrogen. After the desorption period, the run was initiated and the liquid nitrogen removed.
The conditions of the system were as follows. Injection port: 200° C., splitless, ultra-purified helium (99.999%) carrier gas, front inlet flow 1.5 mL·min^−1 constant, 10 mL·min^−1 purge flow, 11.5 mL·min^−1 total flow. Oven: initial temperature 40° C. for 0 min, ramped by 43° C.·min^−1 to 185° C. for 0 min. Column: HP-5 MS, 30 m×0.25 mm i.d., 0.25 μm film thickness (Agilent). Transfer line temperature 225° C. MS: Electron ionization (−70 eV), ion source temperature 200° C., solvent delay 50 sec, m/z range 29 to 400, detector voltage 1500 V, data collection rate 20 Hz.
Compounds were identified by comparison of the retention time and mass spectrum against authenticated reference standards and spectra (National Institute of Standards and Technology Mass Spectral Search Program Version 2.0, 2001). Volatiles were quantified by calibration with a standard of 59 authenticated, high-purity compounds (Sigma-Aldrich Co. and Fluka Chemical) including the target compounds. The standard was made by placing 0.5 μL of an equal-part mixture of the neat compounds onto a disc of filter paper before quickly placing the filter paper into a 4-L sealed flask fitted with a Mininert valve (for SPME fiber access, and allowed to vaporize for at least 6 hours. SPME adsorption and desorption times of the standard matched that of the samples quantified (e.g., 30-s adsorption, 1 min desorption when quantifying samples in 22-mL vials).
Statistical analysis was performed using SciPy (v1.6.2), RStudio (v2023.03.0+386), or Microsoft Excel (v16.89). […]

[3] = system: banana pulp; assay: Free amino acid content of banana pulp via UPLC-MS/MS after AHAS inhibitor treatment; set-up: species or system Musa spp. AAA group, Cavendish subgroup, cv. Valery; key to free asparagine content compared to control / free glutamine content compared to control / free histidine content compared to control / free isoleucine content compared to control / free lysine content compared to control / free methionine content compared to control / free phenylalanine content compared to control / free threonine content compared to control / free tryptophan content compared to control / free arginine content compared to control: —: Dash indicates no significant difference between treatments
Experimental: as §1
After volatile analysis, apple peel disks, collected peel of flowering quince, and ‘Valery’ pulp section samples were held at −80° C. for further amino acid analysis.
Frozen samples were ground to a powder in liquid nitrogen-chilled mortar and pestles. About 500 mg of tissue was vortexed for 10 sec in 2 mL of room temperature (22° C.) extraction solution (1:1:1 water:acetonitrile:ethanol, v/v/v) spiked with 2 nmoles of U-^13C,^15N labeled amino acids (MilliporeSigma) as internal standards and heated for 15 min in a 65° C. water bath. Extracts were briefly chilled on ice before centrifugation at 4400×g for 15 min at 4° C. The supernatant was filtered by centrifugation (0.2 μm nylon centrifugal filter; Costar, Corning) at 21000×g for 5 min at room temperature. 10 μL of the filtrate was transferred to an autosampler vial and diluted 100-fold with 990 μL of 10.1 mM perfluorohexanoic acid (PFHA) spiked with […] of internal standard. Thus the final concentration of internal standard was ˜2 μM.
An amino acid standard series was prepared from a premade mixture (MilliporeSigma, AAS18) that contained equal molar amounts of cystine and all 20 proteinogenic amino acids save for tryptophan, asparagine, glutamine, and cysteine. An equal molar mixture of tryptophan, asparagine, glutamine, and cysteine was subsequently prepared. To avoid dilution errors or artefacts from differing buffers, these amino acid stocks were aliquoted and desiccated such that a five-part standard series ranging from 250 μM to 25 nM would be produced upon resuscitation with 10 μL of spiked extraction buffer and 990 μL spiked PFHA solution.
Samples and amino acids were held overnight at −20° C. before analysis. Amino acids were analyzed with a Xevo TQ-S Micro UPLC (H-Class)-MS/MS (Waters) at the Michigan State University Mass Spectrometry and Metabolomics Core. Conditions were as follows. HPLC column: Acquirt UPLC HSS T3, 2.1×100 mm, 1.7 μm particle size (Waters), with a 0.2 μm pre-column filter (Waters). Mobile phase: A) 10 mM PFHA in water, B) acetonitrile. LC gradient: linear gradient, slope setting=6, flow rate=0.3 mL·min^−1, step 1) 0 min, 100% A, 0% B, 2) 1 min, 100% A, 0% B, 3) 8 min, 35% A, 65% B, 4) 8.01 min, 10% A, 90% B, 5) 9 min, 10% A, 90% B, 6) 9.01 min, 100% A, 0% B, 7) 13 min, 100% A, 0% B. Column temp: 40° C. Autosampler temp: 10° C. Injection volume: 10 μL. Tune parameters: electrospray ionization, standard ESI probe, capillary voltage=+1.0 kV, source temp=120° C., desolvation temp=350° C., desolvation gas=800 L·hr^−1, cone gas=40 L·hr^−1. […]

[4] = Valery banana pulp sections, 0.5 mM

With `CC1=CC1` [MCP, 1-methylcyclopropene] the “respiration rate of MCP-treated fruit relative to untreated fruit” value [1] was 88.7%.

`COC(=O)c1c(Cl)nn(C)c1S(=O)(=O)NC(=O)Nc1nc(OC)cc(OC)n1` [halosulfuron-methyl, methyl 3-chloro-5-(4,6-dimethoxypyrimidin-2-ylcarbamoylsulfamoyl)-1-methylpyrazole-4-carboxylate] was tested, and the “ethyl acetate, butyl acetate, and butyl butanoate collectively reduced” value ([2]; Valery banana fruit) was 95.0%, the “reduction in the total content of iso-branched-chain esters in the headspace” value ([2]; Valery banana fruit) was 90.3% and the “sec-branched esters or related volatiles (2-pentanone, 2-pentanol, 1-methylbutyl acetate, 1-methylbutyl butanoate) affected by inhibitor treatment” value ([2]; Valery banana fruit) was “None”. The “1-methylbutyl acetate emissions compared to control” value [2, 4] was “—”, the “2-methylpropyl acetate (val) emissions compared to control” value [2, 4] was 2.0 ± 0.7% and the “3-methylbutyl acetate (leu) emissions compared to control” value [2, 4] was 10.4 ± 5.4%. For the same molecule, the “butyl acetate emissions compared to control” value [2, 4] was 3.9 ± 2.7%, the “ethyl acetate emissions compared to control” value [2, 4] was 3.9 ± 2.4% and the “sum of anteiso- and iso-branched-chain esters emissions compared to control” value [2, 4] was 9.7 ± 3.6%. The isoleucine levels ([3]; Valery banana fruit) was “unchanged”, the “total content of free amino acids” value ([3]; Valery banana fruit) was “increased” and the “valine and leucine less abundant” value ([3]; Valery banana fruit) was 57.6%. The “free alanine content compared to control” value [3, 4] was 407.4 ± 66.8%, the “free arginine content compared to control” value [3, 4] was “—” and the “free asparagine content compared to control” value [3, 4] was “—”. The “free aspartate content compared to control” value [3, 4] was 332.7 ± 30.1%, the “free cysteine content compared to control” value [3, 4] was 264.2 ± 46.6% and the “free glutamate content compared to control” value [3, 4] was 217.4 ± 23.9%. For the same molecule, the “free glutamine content compared to control” value [3, 4] was “—”, the “free glycine content compared to control” value [3, 4] was 173.1 ± 39.9% and the “free histidine content compared to control” value [3, 4] was “—”. The “free isoleucine content compared to control” value [3, 4] was “—”, the “free leucine content compared to control” value [3, 4] was 65.8 ± 6.1% and the “free lysine content compared to control” value [3, 4] was “—”. The “free methionine content compared to control” value [3, 4] was “—”, the “free phenylalanine content compared to control” value [3, 4] was “—” and the “free proline content compared to control” value [3, 4] was 188.4 ± 18.7%. The “free serine content compared to control” value [3, 4] was 186.2 ± 14.5%, the “free threonine content compared to control” value [3, 4] was “—” and the “free tryptophan content compared to control” value [3, 4] was “—”. The “free tyrosine content compared to control” value [3, 4] was 142.3 ± 25.1%, the “free valine content compared to control” value [3, 4] was 14.3 ± 0.8% and the “total free amino acid content compared to control” value [3, 4] was 150.6 ± 13.7%.
